Test results: patent US11000033B2, “Ketone or oxime compound, and herbicide” (NISSAN CHEMICAL CORPORATION, priority 2014, dated 2021)

Key:
Type in all cases: in vivo
Lolium multiflorum Lam. = assay: Test Example 5: herbicidal effect by foliage application, plastic box (symbol K); settings: 320 g/ha, 3 weeks after application
Summary of the method: (§1)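 Visual herbicidal score, taken three weeks post-application, of seedlings sprayed on the foliage with water-diluted emulsion at a predetermined amount; plants were 14 days old, greenhouse-raised at 25° C. to 30° C.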

[1] = test system: Echinochloa oryzacola Vasing.; assay: Test Example 2: herbicidal activity, application during weed generation in submerged conditions (symbol A); settings: Table 23; application herbicide amount 320 g/ha; grade 0-5 by criteria of Test Example 1
Summary of the method: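 Weeds emerging under flooded conditions were treated with compound formulated as an emulsion and diluted with water to the intended herbicide amount, poured onto the surface of 4 cm standing water. Seeds had been co-sown in alluvial soil; plants grew at 25° C. to 30° C. and were assessed after 3 weeks.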

corn = assay: Test Example 5: effect on crop by foliage application, plastic box (symbol c); settings: 320 g/ha, 3 weeks after application
Summary of the method: (§2)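 Crop seed is sown alongside grass and broadleaf weed species in spots in sterilized diluvial soil, then covered to a depth of about 1.5 cm. Plants grow in a greenhouse kept at 25° C. to 30° C.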

Digitaria ciliaris = assay: Test Example 4: herbicidal effect by soil treatment (symbol F); settings: application herbicide amount 320 g/ha
Summary of the method: (§3)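 Seeds were sown in sterilized diluvial soil, covered with about 1.5 cm of soil, and the soil surface was sprayed with a water-diluted emulsion of the compound at a predetermined rate. Plants grew in a greenhouse at 25° C. to 30° C.; effects were scored visually 3 weeks after application.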

Monochoria vaginalis = assay: Test Example 1: herbicidal activity, application before weed generation in submerged conditions (symbol C); settings: application herbicide amount 320 g/ha
Summary of the method: (§4)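 Ratings (5: ≥90%, near complete withering; 4: 70–<90%; 3: 40–<70%; 2: 20–<40%; 1: 5–<20%; 0: ≤5%) were assigned 3 weeks after the diluted emulsion was applied to the water surface of freshly sown, submerged pots.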

[2] = test system: Echinochloa oryzacola Vasing.; assay: Test Example 1: herbicidal activity, application before weed generation in submerged conditions (symbol A); settings: application herbicide amount 320 g/ha
Summary of the method: as §4

beet = assay: Test Example 5: effect on crop by foliage application, plastic box (symbol f); settings: 320 g/ha, 3 weeks after application
Summary of the method: as §2

Veronica persica [3] = assay: Test Example 4: herbicidal effect by soil treatment (symbol R); settings: application herbicide amount 320 g/ha
Summary of the method: as §3

Avena fatua = assay: Test Example 5: herbicidal effect by foliage application, plastic box (symbol I); settings: 320 g/ha, 3 weeks after application
Summary of the method: as §1

Veronica persica [4] = assay: Test Example 5: herbicidal effect by foliage application, plastic box (symbol R); settings: 320 g/ha, 3 weeks after application
Summary of the method: as §1

rapeseed = assay: Test Example 5: effect on crop by foliage application, plastic box (symbol g); settings: 320 g/ha, 3 weeks after application
Summary of the method: as §2

In the case of `CCc1cc(-c2ccc(Cl)cc2)cc(C)c1C1=C(O)CC(CC(C)=NOC)C1=O` (stereo not drawn) [6-066], the “K: Lolium multiflorum Lam., herbicidal effect (criteria of Test Example 1)” value (Lolium multiflorum Lam.) is reported as 5 (Herbicidal ratio of 90% or more (almost completely withered)), the “Herbicidal effect grade, A: Echinochloa oryzacola Vasing.” value [1] is reported as 5 (Herbicidal ratio of 90% or more (almost completely withered)) and the “c: corn, effect on crop (criteria of Test Example 1)” value (corn) is reported as 5 (Herbicidal ratio of 90% or more (almost completely withered)). For the same molecule, the “F: Digitaria ciliaris, herbicidal effect grade” value (Digitaria ciliaris) was 5 (Herbicidal ratio of 90% or more (almost completely withered)), the “Herbicidal effect grade, C: Monochoria vaginalis” value (from here on “Herbicidal effect grade, C”) (Monochoria vaginalis) was 2 (Herbicidal ratio of 20% or higher and lower than 40%) and the “Herbicidal effect grade, A: Echinochloa oryzacola Vasing.” value [2] was 5 (Herbicidal ratio of 90% or more (almost completely withered)). For the same molecule, the “f: beet, effect on crop (criteria of Test Example 1)” value (beet) was 0 (Herbicidal ratio of 5% or lower (almost no effect)), the “R: Veronica persica, herbicidal effect grade” value (Veronica persica [3]) was 3 (Herbicidal ratio of 40% or higher and lower than 70%) and the “I: Avena fatua, herbicidal effect (criteria of Test Example 1)” value (Avena fatua) was 5 (Herbicidal ratio of 90% or more (almost completely withered)).

With `CC(=O)CC1CC(O)=C(c2c(C)cc(Br)cc2C)C1=O` (stereo not drawn) [7-002] the “K: Lolium multiflorum Lam., herbicidal effect (criteria of Test Example 1)” value (Lolium multiflorum Lam.) was 5 (Herbicidal ratio of 90% or more (almost completely withered)), the “Herbicidal effect grade, A: Echinochloa oryzacola Vasing.” value [1] was 0 (Herbicidal ratio of 5% or lower (almost no effect)) and the “c: corn, effect on crop (criteria of Test Example 1)” value (corn) was 3 (Herbicidal ratio of 40% or higher and lower than 70%). For the same molecule, the “Herbicidal effect grade, F: Digitaria ciliaris” value (“Herbicidal effect grade, F” below) (Digitaria ciliaris) was 5 (Herbicidal ratio of 90% or more (almost completely withered)), the “Herbicidal effect grade, C” value (Monochoria vaginalis) was 0 (Herbicidal ratio of 5% or lower (almost no effect)) and the “Herbicidal effect grade, A: Echinochloa oryzacola Vasing.” value [2] was 0 (Herbicidal ratio of 5% or lower (almost no effect)). The “f: beet, effect on crop (criteria of Test Example 1)” value (beet) was 0 (Herbicidal ratio of 5% or lower (almost no effect)), the “R: Veronica persica, herbicidal effect (criteria of Test Example 1)” value (Veronica persica [4]) was 0 (Herbicidal ratio of 5% or lower (almost no effect)) and the “g: rapeseed, effect on crop (criteria of Test Example 1)” value (rapeseed) was 0 (Herbicidal ratio of 5% or lower (almost no effect)). For the same molecule, the “I: Avena fatua, herbicidal effect (criteria of Test Example 1)” value (Avena fatua) was 4 (Herbicidal ratio of 70% or higher and lower than 90%).

For `CC(=O)CC1CC(O)=C(c2c(C)cc(-c3ccccc3)cc2C)C1=O` (stereo not drawn) [7-004], the “K: Lolium multiflorum Lam., herbicidal effect (criteria of Test Example 1)” value (Lolium multiflorum Lam.) was 5 (Herbicidal ratio of 90% or more (almost completely withered)), the “Herbicidal effect grade, A: Echinochloa oryzacola Vasing.” value [1] was 4 (Herbicidal ratio of 70% or higher and lower than 90%) and the “c: corn, effect on crop (criteria of Test Example 1)” value (corn) was 5 (Herbicidal ratio of 90% or more (almost completely withered)). The “Herbicidal effect grade, F” value (Digitaria ciliaris) was 5 (Herbicidal ratio of 90% or more (almost completely withered)), the “Herbicidal effect grade, C” value (Monochoria vaginalis) was 0 (Herbicidal ratio of 5% or lower (almost no effect)) and the “Herbicidal effect grade, A: Echinochloa oryzacola Vasing.” value [2] was 5 (Herbicidal ratio of 90% or more (almost completely withered)). For the same molecule, the “f: beet, effect on crop (criteria of Test Example 1)” value (beet) was 0 (Herbicidal ratio of 5% or lower (almost no effect)), the “g: rapeseed, effect on crop (criteria of Test Example 1)” value (rapeseed) was 3 (Herbicidal ratio of 40% or higher and lower than 70%) and the “Herbicidal effect grade, R: Veronica persica” value (from here on “Herbicidal effect grade, R”) (Veronica persica [3]) was 0 (Herbicidal ratio of 5% or lower (almost no effect)). The “I: Avena fatua, herbicidal effect (criteria of Test Example 1)” value (Avena fatua) was 2 (Herbicidal ratio of 20% or higher and lower than 40%).

`CC(=O)CC1CC(O)=C(c2c(C)cc(Oc3ccc(C(F)(F)F)cn3)cc2C)C1=O` (stereo not drawn) [7-019] was tested, and the “K: Lolium multiflorum Lam., herbicidal effect (criteria of Test Example 1)” value (Lolium multiflorum Lam.) was 3 (Herbicidal ratio of 40% or higher and lower than 70%), the “c: corn, effect on crop (criteria of Test Example 1)” value (corn) was 2 (Herbicidal ratio of 20% or higher and lower than 40%) and the “Herbicidal effect grade, F” value (Digitaria ciliaris) was 3 (Herbicidal ratio of 40% or higher and lower than 70%). For the same molecule, the “Herbicidal effect grade, C” value (Monochoria vaginalis) was 0 (Herbicidal ratio of 5% or lower (almost no effect)), the “Herbicidal effect grade, A: Echinochloa oryzacola Vasing.” value [2] was 1 (Herbicidal ratio of 5% or higher and lower than 20%) and the “f: beet, effect on crop (criteria of Test Example 1)” value (beet) was 0 (Herbicidal ratio of 5% or lower (almost no effect)). For the same molecule, the “R: Veronica persica, herbicidal effect (criteria of Test Example 1)” value (Veronica persica [4]) was 0 (Herbicidal ratio of 5% or lower (almost no effect)), the “g: rapeseed, effect on crop (criteria of Test Example 1)” value (rapeseed) was 2 (Herbicidal ratio of 20% or higher and lower than 40%) and the “Herbicidal effect grade, R” value (Veronica persica [3]) was 0 (Herbicidal ratio of 5% or lower (almost no effect)). The “I: Avena fatua, herbicidal effect (criteria of Test Example 1)” value (Avena fatua) was 0 (Herbicidal ratio of 5% or lower (almost no effect)).

With `COc1cc(Br)cc(F)c1C1=C(O)CC(CC(C)=O)C1=O` (stereo not drawn) [7-029] the “K: Lolium multiflorum Lam., herbicidal effect (criteria of Test Example 1)” value (Lolium multiflorum Lam.) was 5 (Herbicidal ratio of 90% or more (almost completely withered)), the “Herbicidal effect grade, F” value (Digitaria ciliaris) was 0 (Herbicidal ratio of 5% or lower (almost no effect)) and the “Herbicidal effect grade, C” value (Monochoria vaginalis) was 0 (Herbicidal ratio of 5% or lower (almost no effect)). The “Herbicidal effect grade, A: Echinochloa oryzacola Vasing.” value [2] was 2 (Herbicidal ratio of 20% or higher and lower than 40%), the “f: beet, effect on crop (criteria of Test Example 1)” value (beet) was 0 (Herbicidal ratio of 5% or lower (almost no effect)) and the “R: Veronica persica, herbicidal effect (criteria of Test Example 1)” value (Veronica persica [4]) was 0 (Herbicidal ratio of 5% or lower (almost no effect)). For the same molecule, the “g: rapeseed, effect on crop (criteria of Test Example 1)” value (rapeseed) was 1 (Herbicidal ratio of 5% or higher and lower than 20%), the “Herbicidal effect grade, R” value (Veronica persica [3]) was 0 (Herbicidal ratio of 5% or lower (almost no effect)) and the “I: Avena fatua, herbicidal effect (criteria of Test Example 1)” value (Avena fatua) was 3 (Herbicidal ratio of 40% or higher and lower than 70%).

In the case of `CC(=O)C1CC(O)=C(c2c(C)cc(C)cc2C)C1=O` (stereo not drawn) [8-001], the “K: Lolium multiflorum Lam., herbicidal effect grade” value (Lolium multiflorum Lam.) is reported as 1 (Herbicidal ratio of 5% or higher and lower than 20%), the “Herbicidal effect grade, A: Echinochloa oryzacola Vasing.” value [1] is reported as 0 (Herbicidal ratio of 5% or lower (almost no effect)) and the “c: corn, effect on crop grade” value (corn) is reported as 0 (Herbicidal ratio of 5% or lower (almost no effect)). The “Herbicidal effect grade, F” value (Digitaria ciliaris) was 0 (Herbicidal ratio of 5% or lower (almost no effect)), the “Herbicidal effect grade, C” value (Monochoria vaginalis) was 0 (Herbicidal ratio of 5% or lower (almost no effect)) and the “Herbicidal effect grade, A: Echinochloa oryzacola Vasing.” value [2] was 0 (Herbicidal ratio of 5% or lower (almost no effect)). The “f: beet, effect on crop grade” value (beet) was 0 (Herbicidal ratio of 5% or lower (almost no effect)), the “g: rapeseed, effect on crop grade” value (rapeseed) was 0 (Herbicidal ratio of 5% or lower (almost no effect)) and the “Herbicidal effect grade, R” value (Veronica persica [3]) was 0 (Herbicidal ratio of 5% or lower (almost no effect)). The “I: Avena fatua, herbicidal effect grade” value (Avena fatua) was 0 (Herbicidal ratio of 5% or lower (almost no effect)).

With `CON=C(C)C(=O)C1CC(O)=C(c2c(C)cc(C)cc2C)C1=O` (stereo not drawn) [8-002] the “K: Lolium multiflorum Lam., herbicidal effect grade” value (Lolium multiflorum Lam.) was 5 (Herbicidal ratio of 90% or more (almost completely withered)), the “Herbicidal effect grade, A: Echinochloa oryzacola Vasing.” value [1] was 0 (Herbicidal ratio of 5% or lower (almost no effect)) and the “c: corn, effect on crop grade” value (corn) was 0 (Herbicidal ratio of 5% or lower (almost no effect)). For the same molecule, the “Herbicidal effect grade, F” value (Digitaria ciliaris) was 3 (Herbicidal ratio of 40% or higher and lower than 70%), the “Herbicidal effect grade, C” value (Monochoria vaginalis) was 0 (Herbicidal ratio of 5% or lower (almost no effect)) and the “Herbicidal effect grade, A: Echinochloa oryzacola Vasing.” value [2] was 0 (Herbicidal ratio of 5% or lower (almost no effect)). For the same molecule, the “f: beet, effect on crop grade” value (beet) was 0 (Herbicidal ratio of 5% or lower (almost no effect)), the “R: Veronica persica, herbicidal effect grade” value (Veronica persica [4]) was 0 (Herbicidal ratio of 5% or lower (almost no effect)) and the “g: rapeseed, effect on crop grade” value (rapeseed) was 1 (Herbicidal ratio of 5% or higher and lower than 20%). The “I: Avena fatua, herbicidal effect grade” value (Avena fatua) was 3 (Herbicidal ratio of 40% or higher and lower than 70%).

With `CON=C(C)C(=NOC)C1CC(O)=C(c2c(C)cc(C)cc2C)C1=O` (stereo not drawn) [8-003] the “K: Lolium multiflorum Lam., herbicidal effect grade” value (Lolium multiflorum Lam.) was 2 (Herbicidal ratio of 20% or higher and lower than 40%), the “Herbicidal effect grade, A: Echinochloa oryzacola Vasing.” value [1] was 0 (Herbicidal ratio of 5% or lower (almost no effect)) and the “c: corn, effect on crop grade” value (corn) was 0 (Herbicidal ratio of 5% or lower (almost no effect)). The “Herbicidal effect grade, F” value (Digitaria ciliaris) was 0 (Herbicidal ratio of 5% or lower (almost no effect)), the “Herbicidal effect grade, C” value (Monochoria vaginalis) was 0 (Herbicidal ratio of 5% or lower (almost no effect)) and the “Herbicidal effect grade, A: Echinochloa oryzacola Vasing.” value [2] was 0 (Herbicidal ratio of 5% or lower (almost no effect)). The “f: beet, effect on crop grade” value (beet) was 0 (Herbicidal ratio of 5% or lower (almost no effect)), the “R: Veronica persica, herbicidal effect grade” value (Veronica persica [4]) was 0 (Herbicidal ratio of 5% or lower (almost no effect)) and the “g: rapeseed, effect on crop grade” value (rapeseed) was 0 (Herbicidal ratio of 5% or lower (almost no effect)). For the same molecule, the “I: Avena fatua, herbicidal effect grade” value (Avena fatua) was 0 (Herbicidal ratio of 5% or lower (almost no effect)).
